Assay results from US20230190717A1, “P38 GAMMA INHIBITORS AND METHOD OF USE THEREOF” (City of Hope, priority 2017, published 2023).
pIC50: −log10 of the molar value.

Key:
Assay type in all cases: cell-based, human
[1] = tested on: HOP-92; test: NCI-60 cytotoxicity, HOP-92; conditions: HOP-92 (Lung), 72 h
Method: (§1) Briefly, human NCI-60 cancer cell lines were counted with a Vi-CELL Cell Viability Analyzer (Beckman Coulter), resuspended in RPMI-1640 medium containing 10% FBS and 1% penicillin/streptomycin and dispensed in wells of 96-well microplates (3000 cells per well for solid tumor and 5000 per well for blood tumor cells) using an epMotion 5075 liquid handler (Eppendorf) under a sterile condition, followed by incubation overnight at 37° C. in 5% (v/v) CO2. Cells were exposed to compounds in a dose-dependent manner for 72 h. An MTS dye (20 uL per well) was added to each well. Cell viability was determined by tetrazolium conversion to its […] dye. […] Each experiment was performed in duplicate. […] H9 cells are more sensitive to drugs, therefore instead of 72 hours, we choose 48 hour the incubation time for H9 cells.
(§2) IC50 values were determined using […] software (Biosoft).

[2] = tested on: OVCAR-3; test: NCI-60 cytotoxicity, OVCAR-3; conditions: OVCAR-3 (Ovarian), 72 h
Method: as §1, §2

[3] = tested on: OVCAR-5; test: NCI-60 cytotoxicity, OVCAR-5; conditions: OVCAR-5 (Ovarian), 72 h
Method: as §1, §2

[4] = tested on: MDA-MB-468; test: NCI-60 cytotoxicity, MDA-MB-468; conditions: MDA-MB-468 (Breast), 72 h
Method: as §1, §2

[5] = tested on: ACHN; test: NCI-60 cytotoxicity, ACHN; conditions: ACHN (Renal), 72 h
Method: as §1, §2

[6] = tested on: HOP-62; test: NCI-60 cytotoxicity, HOP-62; conditions: HOP-62 (Lung), 72 h
Method: as §1, §2

[7] = tested on: SF-295; test: NCI-60 cytotoxicity, SF-295; conditions: SF-295 (CNS), 72 h
Method: as §1, §2

[8] = tested on: UO31; test: NCI-60 cytotoxicity, UO31; conditions: UO31 (Renal), 72 h
Method: as §1, §2

[9] = tested on: OVCAR-4; test: NCI-60 cytotoxicity, OVCAR-4; conditions: OVCAR-4 (Ovarian), 72 h
Method: as §1, §2

[10] = tested on: SF-268; test: NCI-60 cytotoxicity, SF-268; conditions: SF-268 (CNS), 72 h
Method: as §1, §2

[11] = tested on: IGR-OV1; test: NCI-60 cytotoxicity, IGR-OV1; conditions: IGR-OV1 (Ovarian), 72 h
Method: as §1, §2

[12] = tested on: HS 578T; test: NCI-60 cytotoxicity, HS 578T; conditions: HS 578T (Breast), 72 h
Method: as §1, §2

[13] = tested on: MDA-MB-435; test: NCI-60 cytotoxicity, MDA-MB-435; conditions: MDA-MB-435 (Melanoma), 72 h
Method: as §1, §2

[14] = tested on: UACC-62; test: NCI-60 cytotoxicity, UACC-62; conditions: UACC-62 (Melanoma), 72 h
Method: as §1, §2

[15] = tested on: CCRF-CEM; test: NCI-60 cytotoxicity, CCRF-CEM; conditions: CCRF-CEM (Leukemia), 72 h
Method: as §1, §2

[16] = tested on: HT29; test: NCI-60 cytotoxicity, HT29; conditions: HT29 (Colon), 72 h
Method: as §1, §2

[17] = tested on: SK-MEL-28; test: NCI-60 cytotoxicity, SK-MEL-28; conditions: SK-MEL-28 (Melanoma), 72 h
Method: as §1, §2

[18] = tested on: MALME-3M; test: NCI-60 cytotoxicity, MALME-3M; conditions: MALME-3M (Melanoma), 72 h
Method: as §1, §2

[19] = tested on: EKVX; test: NCI-60 cytotoxicity, EKVX; conditions: EKVX (Lung), 72 h
Method: as §1, §2

[20] = tested on: TK-10; test: NCI-60 cytotoxicity, TK-10; conditions: TK-10 (Renal), 72 h
Method: as §1, §2

[21] = tested on: SR; test: NCI-60 cytotoxicity, SR; conditions: SR (Leukemia), 72 h
Method: as §1, §2

[22] = tested on: DU-145; test: NCI-60 cytotoxicity, DU-145; conditions: DU-145 (Prostate), 72 h
Method: as §1, §2

[23] = tested on: SKOV3; test: NCI-60 cytotoxicity, SKOV3; conditions: SKOV3 (Ovarian), 72 h
Method: as §1, §2

[24] = tested on: SF-539; test: NCI-60 cytotoxicity, SF-539; conditions: SF-539 (CNS), 72 h
Method: as §1, §2

[25] = tested on: LOX IMVI; test: NCI-60 cytotoxicity, LOX IMVI; conditions: LOX IMVI (Melanoma), 72 h
Method: as §1, §2

[26] = tested on: A498; test: NCI-60 cytotoxicity, A498; conditions: A498 (Renal), 72 h
Method: as §1, §2

[27] = tested on: OVCAR-8; test: NCI-60 cytotoxicity, OVCAR-8; conditions: OVCAR-8 (Ovarian), 72 h
Method: as §1, §2

[28] = tested on: CAKI-1; test: NCI-60 cytotoxicity, CAKI-1; conditions: CAKI-1 (Renal), 72 h
Method: as §1, §2

[29] = tested on: SW-620; test: NCI-60 cytotoxicity, SW-620; conditions: SW-620 (Colon), 72 h
Method: as §1, §2

[30] = tested on: SNB-19; test: NCI-60 cytotoxicity, SNB-19; conditions: SNB-19 (CNS), 72 h
Method: as §1, §2

[31] = tested on: RPMI-8226; test: NCI-60 cytotoxicity, RPMI-8226; conditions: RPMI-8226 (MM), 72 h
Method: as §1, §2

[32] = tested on: K-562; test: NCI-60 cytotoxicity, K-562; conditions: K-562 (CML), 72 h
Method: as §1, §2

[33] = tested on: MDA-MB-231; test: NCI-60 cytotoxicity, MDA-MB-231; conditions: MDA-MB-231 (Breast), 72 h
Method: as §1, §2

SMILES: Cc1ccc([N+](=O)[O-])cc1S(=O)(=O)N(C)/N=C/c1cnc2ccc(Br)cn12 [Compound 1]
- pIC50 ([1]; Homo sapiens): 7.03
- pIC50 ([2]; Homo sapiens): 7.15
- pIC50 ([3]; Homo sapiens): 7.40
- pIC50 ([4]; Homo sapiens): 6.99
- pIC50 ([5]; Homo sapiens): 7.04
- pIC50 ([6]; Homo sapiens): 8.10
- pIC50 ([7]; Homo sapiens): 6.85
- pIC50 ([8]; Homo sapiens, UO-31): 6.94
- pIC50 ([9]; Homo sapiens): 6.39
- pIC50 ([10]; Homo sapiens): 5.65
- pIC50 ([11]; Homo sapiens, IGROV-1): 6.60
- pIC50 ([12]; Homo sapiens): 6.23
- pIC50 ([13]; Homo sapiens): < 5.00
- pIC50 ([14]; Homo sapiens): 6.44
- pIC50 ([15]; Homo sapiens): 5.43
- pIC50 ([16]; Homo sapiens, HT-29): 7.06
- pIC50 ([17]; Homo sapiens): 5.77
- pIC50 ([18]; Homo sapiens): 6.94
- pIC50 ([19]; Homo sapiens): 5.91
- pIC50 ([20]; Homo sapiens): 6.09
- pIC50 ([21]; Homo sapiens): > 9.00
- pIC50 ([22]; Homo sapiens): 9.00
- pIC50 ([23]; Homo sapiens, SK-OV-3): 6.54
- pIC50 ([24]; Homo sapiens): 6.75
- pIC50 ([25]; Homo sapiens): 7.14
- pIC50 ([26]; Homo sapiens): 7.57
- pIC50 ([27]; Homo sapiens): 7.23
- pIC50 ([28]; Homo sapiens): 6.46
- pIC50 ([29]; Homo sapiens): 7.13
- pIC50 ([30]; Homo sapiens): 6.41
- pIC50 ([31]; Homo sapiens): 7.11
- pIC50 ([32]; Homo sapiens, K562): 6.38
- pIC50 ([33]; Homo sapiens): 6.33

SMILES: O=C1NCCc2[nH]c(-c3ccncc3)cc21 [Compound A11]
- pIC50 [1]: 5.19
- pIC50 [2]: 5.60
- pIC50 [3]: 5.27
- pIC50 [4]: 5.75
- pIC50 [5]: < 5.00
- pIC50 [6]: 5.00
- pIC50 [7]: 5.12
- pIC50 [8]: 5.39
- pIC50 [9]: < 5.00
- pIC50 [10]: < 5.00
- pIC50 [11]: < 5.00
- pIC50 [12]: < 5.00
- pIC50 [13]: < 5.00
- pIC50 [14]: 5.21
- pIC50 [15]: 5.60
- pIC50 [16]: 5.30
- pIC50 [17]: 5.02
- pIC50 [18]: 5.52
- pIC50 [19]: < 5.00
- pIC50 [20]: < 5.00
- pIC50 [21]: 6.54
- pIC50 [22]: 5.65
- pIC50 [23]: < 5.00
- pIC50 [24]: 5.43
- pIC50 [25]: 5.45
- pIC50 [26]: < 5.00
- pIC50 [27]: 5.44
- pIC50 [28]: < 5.00
- pIC50 [29]: 5.41
- pIC50 [30]: < 5.00
- pIC50 [31]: < 5.00
- pIC50 [32]: < 5.00
- pIC50 [33]: < 5.00

SMILES: O=C1NC(=NCc2cccs2)S/C1=C\c1ccc2ncccc2c1 [Compound A10]
- pIC50 [1]: 5.22
- pIC50 [2]: < 5.00
- pIC50 [3]: < 5.00
- pIC50 [4]: 5.16
- pIC50 [5]: 5.35
- pIC50 [6]: < 5.00
- pIC50 [7]: < 5.00
- pIC50 [8]: < 5.00
- pIC50 [9]: < 5.00
- pIC50 [10]: < 5.00
- pIC50 [11]: < 5.00
- pIC50 [12]: 5.23
- pIC50 [13]: 5.18
- pIC50 [14]: < 5.00
- pIC50 [15]: 5.60
- pIC50 [16]: < 5.00
- pIC50 [17]: < 5.00
- pIC50 [18]: < 5.00
- pIC50 [19]: < 5.00
- pIC50 [20]: < 5.00
- pIC50 [21]: 6.43
- pIC50 [22]: 5.86
- pIC50 [23]: < 5.00
- pIC50 [24]: 5.59
- pIC50 [25]: 5.36
- pIC50 [26]: < 5.00
- pIC50 [27]: < 5.00
- pIC50 [28]: < 5.00
- pIC50 [29]: < 5.00
- pIC50 [30]: < 5.00
- pIC50 [31]: 5.05
- pIC50 [32]: < 5.00
- pIC50 [33]: < 5.00
